The values that follow come from patent publication US20100087385A1 (priority 2006, published 2010).

In this assay the test system is TNBS induced IBD rats. The assay is described as follows: Experiment III: TNBS-ethanol induced IBD in rats. It is filed as in vivo, Wistar rats. Particulars: for Colonic lesion score: CON 0, M 6.00 ± 3.25; for Colon weight of length: CON 0.106 ± 0.011, M 0.376 ± 0.133; for MDA / MPO / SOD: colon homogenate; for MDA: CON 0.0360 ± 0.00632, M 0.0274 ± 0.0055; for MPO: CON 21.993 ± 2.061, M 134.038 ± 1.979; for SOD: CON 46.400 ± 8.202, M 38.005 ± 4.121. From the text:
Wister rats were randomly divided into seven groups. There are four […] in each group, including normal control (CON) group, Model (M) group, positive control (SASP) group, diammonium glycyrrhizinate gavage administration (DI) group, diammonium glycyrrhizinate low dose (DGD) group, diammonium glycyrrhizinate medium dose (DGZ) group, and diammonium glycyrrhizinate high dose (DGG) group. No water and diets restriction were applied to mice during the period of the experiment.
Rats were anesthetized by ether. TNBS dissolved in 30% ethanol were injected into rat colon 8 cm in depth through anus with an i.v. tubing. The concentration of TNBS was 100 mg/Kg at the volumes of 0.20 ml/100 g. The rats were held up side down for 1 minute after the injection before released back to the cages.
There are seven groups total in this test. Rats in all groups were treated identically to create IBD models and the experimental conditions are described in the following.
Normal control (Con) group: Both TNBS-ethanol solution and treated drugs were replaced by normal saline. The dose of drug for treatment was 0.20 ml/100 g. Model (M) group: After creating the TNBS-ethanol induced IBD model in rats, normal saline instead of drug was used as a blank control for the comparison of drug treatment. The drug dose of IBD treatment was 0.20 ml/100 g. SASP group: SASP (22.5 mg/100 g) was used as a positive control. SASP was applied to rats through anus after ether anesthesia. Diammonium glycyrrhetate gavage administration (DI) group: Diammonium glycyrrhetate (10 mg/kg) was provided to rats by gavage after ether anesthesia. Diammonium glycyrrhetate, anal administration, low dose (DGD) group: Diammonium glycyrrhetate (2 mg/kg) was provided to rats through anus after ether anesthesia. Diammonium glycyrrhetate, anal administration, medium dose (DGZ) group: Diammonium glycyrrhetate (10 mg/kg) was provided to rats through anus after ether anesthesia. Diammonium glycyrrhetate, anal administration, high dose (DGG) group: Diammonium glycyrrhetate (50 mg/kg) was provided to rats through anus after ether anesthesia.
During the experimental period, daily activities and body weights of rats were investigated and recorded. Ten days after IBD model establishment, fasting was introduced to rats but water was provided continuously. Before sacrificing the rats, feces samples were taken for OB test; eyeballs were removed for blood sampling and serum samples were obtained after centrifugation. Radioimmunoassay kits were used to detect IL-1β, IL-6 and TNF-α in serum. The rats were cervical executed; organs of spleen and thymus were removed and weighted for the index calculation. The whole length of colon was weighted; weight per unit length of colon was calculated. The degrees of colon injury were evaluated according to the reference 23 with some modifications. We included the changes of intestinal adhesion, colon ulcer, and inflammatory as the score marks. The standard of score is same as we mentioned previously. The 3 mm colon samples were taken from the end part of colon; fixed by either neutral formaldehyde solution or 2.5% of glutaraldehyde solution for anatomy dissecting. The samples fixed by neutral formaldehyde solution were sent to perform H-E staining and immunohistochemical staining (IL-10, COX-II, and ICAM-1). The samples fixed by 2.5% of glutaraldehyde solution were photo-imaged by both scanning electron microscope and transmission electron microscope. The rest of samples were handled at ice-cold temperature to make 10% homogenization solution and stored at −20° C. for future use. MOP, SOD, MDA and amounts of tissue proteins were determined by Maehly, Pyrogallol, TBA, and Lowry methods.

The mark [1] stands for this setting: DG medium dose group, through anus 10 mg/kg.
The mark [2] stands for this setting: DGD group: through anus, low dose 2 mg/kg.
[3] abbreviates: DGG group: through anus, high dose 50 mg/kg.
[4] abbreviates: DGZ group: through anus, medium dose 10 mg/kg.
[5] abbreviates: SASP group: 22.5 mg/100 g through anus.
The mark [6] stands for this setting: positive control (SASP) group: 22.5 mg/100 g through anus.

For `CC1(C(=O)[O-])CCC2(C)CCC3(C)C(=CC(=O)C4C5(C)CCC([O-])C(C)(C)C5CCC43C)C2C1.[Na+].[Na+]` (stereo not shown) [Disodium glycyrrhetate, disodium glycyrrhetate], the “HE staining of colon tissue (FIG. 3)” value reads like this: (DG gavage administration group, 10 mg/kg) “less severe of symptoms with no ulcer formation”; (DG high dose group, through anus 50 mg/kg) “relieved symptoms and no ulcer formation is observed”; (DG low dose group, through anus 2 mg/kg) “relatively severe symptoms but without ulcer formation”; under setting [1], “no ulcer formation is seen”. Moreover, the “colon mucosa by scanning electron microscope (FIG. 4)” value under setting [1] is “relieved symptoms with less swelling”. The Colonic lesion score reads like this: (DGD group: through anus, low dose 2 mg/kg (table head: mg/100 g)) 3.00 ± 1.69^ΔΔ; (DGG group: through anus, high dose 50 mg/kg (table head: mg/100 g)) 1.50 ± 0.89^ΔΔ; (DGZ group: through anus, medium dose 10 mg/kg (table head: mg/100 g)) 2.50 ± 1.39^ΔΔ; (DI group: gavage, 10 mg/kg (table head: mg/100 g)) 2.00 ± 1.20^ΔΔ. Also, the “Colon weight of length” value was 0.385 ± 0.218 g/cm under setting [2]; 0.174 ± 0.059 g/cm under setting [3]; 0.177 ± 0.065 g/cm under setting [4]; 0.240 ± 0.085 g/cm (DI group: gavage, 10 mg/kg). Further, the MDA runs as follows: under setting [2], 0.0431 ± 0.0243 µmol/mg; under setting [3], 0.0338 ± 0.0115 µmol/mg; under setting [4], 0.0365 ± 0.0151 µmol/mg; (DI group: gavage, 10 mg/kg) 0.0907 ± 0.0302 µmol/mg. Besides, the MPO under setting [2] stood at 141.993 ± 2.494 U/g; the MPO under setting [3] is recorded as 111.753 ± 24.864 U/g; the MPO under setting [4] is recorded as 83.868 ± 16.465^Δ U/g; the MPO (DI group: gavage, 10 mg/kg) is 100.576 ± 10.137^ΔΔ U/g. Moreover, the SOD under setting [2] is 28.847 ± 16.942 U/ml; the SOD under setting [3] was 59.984 ± 3.205^Δ U/ml; the SOD under setting [4] amounted to 46.095 ± 8.065 U/ml; the SOD (DI group: gavage, 10 mg/kg) amounted to 18.774 ± 8.700 U/ml.

Regarding `O=C(O)c1cc(/N=N/c2ccc(S(=O)(=O)Nc3ccccn3)cc2)ccc1O` [SASP, Sulfasalazine, reference compound], under setting [5], the Colonic lesion score is reported as 3.00 ± 1.69^ΔΔ, the “Colon weight of length” value is 0.354 ± 0.087 g/cm, the MDA was found to be 0.0594 ± 0.0287 µmol/mg and the MPO was 44.916 ± 3.525^ΔΔ U/g. Further, the SOD under setting [5] is 33.884 ± 2.656 U/ml. This molecule registered a Thymus index (SASP group: 22.5 mg/100 g through anus, CON 0.9302 ± 0.0984, M 0.0319 ± 0.1504) of 0.2375 ± 0.0792 mg/g. The molecule also yielded a Spleen index (SASP group: 22.5 mg/100 g through anus, CON 2.309 ± 0.135, M 3.893 ± 0.210) of 3.326 ± 0.552 mg/g. Under setting [6], the “HE staining of colon tissue (FIG. 3)” value is reported as “symptoms are reduced with no ulcers formation” and the “colon mucosa by scanning electron microscope (FIG. 4)” value is “symptoms were relieved but with swelling in mucosa layer”.
